By IC50 is commonly meant the concentration needed to halve the response being measured.

This assay concerns the target excitor amino-acid receptors of cortical membranes ("forebrain") of rats. Description: Inhibition of the specific binding of [3H]-glutamate to rat forebrain membranes. Conditions: rat forebrain membranes, 20 min, 37° C., pH 7.1. From the text:
6) Studies on binding to rat "forebrain" membranes
L-glutamate recognizes all three receptor subtypes indicated above, al though not selectively. It is therefore desirable to evaluate the capacity of each of the compounds of the invention to interact with the excitor amino-acid receptors of the CNS.
"Forebrain", that is, the cerebral cortex and the hippocampus, were selected as the receptor tissue and ^3 H-L-glutamate as the ligand for marking this heterogenous receptor population.
Rat cerebral tissue (forebrain without striated tissue) was therefore homogeneised cold in tris buffer at pH 7.4. After washing and centrifuging, the final pellet was resuspended in 50 volumes of tris HCl binding buffer at 7.1. 0.5 ml of receptor membrane thus obtained were then incubated, together with the radioactive tracer and the compounds under test, for 20 min at 37° C. The reaction was terminated by separating the bound radio-ligand from the free radio-ligand by filteration on glass-fibre filters which, after washing, were counted in a liquid scintillator (a β-counter) thus determining the radioactivity associated with the pellet. The specific binding was determined as the difference between the binding in the absence and in the presence of cold 3.6 mM L-glutamate.
Turning to `C[C@H](NC(=O)[C@@H](N)CCC(=O)O)C1CCCCC1` [Compound 12], the IC50 is 169 µM.

As to `C[C@@H](NC(=O)[C@@H](N)CCC(=O)O)C1CCCCC1` [Compound 13], the IC50 is 54 µM.

In the case of `N[C@@H](CCC(=O)O)C(=O)NC1CCCC1` [Compound 18], the IC50 was 21.2 µM.

Take `N[C@@H](CCC(=O)O)C(=O)NC1CCCCCCCCC1` [Compound 22]: the IC50 came to 64 µM.

As for `CCCN(CCC)C(=O)[C@@H](N)CCC(=O)O` [Compound 27], the IC50 was 970 µM.

In the case of `N[C@@H](CCC(=O)O)C(=O)N1CCCCCCC1` [Compound 34], the IC50 was found to be 166 µM.

The molecule `N[C@@H](CCC(=O)O)C(=O)N1CCOCC1` [Compound 35] displayed an IC50 of 29.2 µM.

The molecule `CN[C@@H](CCC(=O)O)C(=O)NC1CCC(C)(C)CC1` [Compound 39, 1-(4,4-dimethylcyclohexyl)-N-methyl-L-isoglutamine] displayed an IC50 of 18.8 µM.

With `CCCCCN(CCCCC)C(=O)[C@@H](N)CC(=O)O` [Compound 41], the IC50 was determined as 136 µM.

For `CC1(C)CCC(NC(=O)[C@@H](N)CC(=O)O)CC1` [Compound 44], the IC50 came to 38.6 µM.

In the case of `CC1(C)CCC(NC(=O)CC[C@@H](N)C(=O)O)CC1` [Compound 49], the IC50 was above 1000 µM.

`CC1(C)CCC(NC(=O)C[C@H](N)C(=O)O)CC1` [Compound 50, 1-(4,4-dimethylcyclohexyl)-L-(β)-asparagine] had an IC50 of 101 µM.

The molecule `N[C@H](CCC(=O)O)C(=O)O` [D-glutamic acid, reference compound] gave an IC50 of 1040 µM.

The molecule `N[C@@H](CC(=O)O)C(=O)O` [L-aspartic acid, reference compound] registered a half-inhibitory concentration (IC50) of 30 µM.

The values are drawn from patent US5723494A, “Derivatives of glutamic and aspartic acids, a method of preparing them, and their use as drugs for enhancing memory and learning” (priority 1993, dated 1998).
